In patent US20220289692A1, “NLRP3 INHIBITORS” (Inflazome Limited, priority 2019, published 2022):

Target: T1, NLRP3 (Homo sapiens, UniProt Q96P20)
Test: Human whole blood IL-1β release assay (LPS, nigericin, AlphaLisa)
Type: cell-based
Design: Plate out 80 μl of whole blood containing 1 μg/ml of LPS in 96-well, clear bottom cell culture plate; from tissue; host or cells: human whole blood from healthy donors, LPS-primed, nigericin-stimulated
Settings: 1 μg/ml LPS, 3 hrs compound, nigericin 10 μM 1 hr, read-out: HWB IC50
Description: For systemic delivery, the ability to inhibit NLRP3 when the compounds are present within the bloodstream is of great importance. For this reason, the NLRP3 inhibitory activity of a number of compounds in human whole blood was investigated in accordance with the following protocol.
Human whole blood in Li-heparin tubes was obtained from healthy donors from a volunteer donor panel. • 1. Plate out 80 μl of whole blood containing 1 μg/ml of LPS in 96-well, clear bottom cell culture plate (Corning #3585) • 2. Add 10 μl compound (8 points half-log dilution with 10 μM top dose) or vehicle (DMSO 0.1% FAC) to the appropriate wells • 3. Incubate for 3 hrs at 37° C., 5% CO2 • 4. Add 10 μl nigericin (Sigma #N7143) (10 μM FAC) to all wells • 5. Incubate for 1 hr at 37° C., 5% CO2 • 6. At the end of the incubation period, spin plates at 300×g for 5 mins to pellet cells and remove 20 μl of supernatant and add to 96-well v-bottom plates for IL-1β analysis (note: these plates containing the supernatants can be stored at −80° C. to be analysed at a later date) • 7. IL-1β was measured according to the manufacturer protocol (Perkin Elmer-AlphaLisa IL-1 Kit AL220F-5000) • 8. IC50 data is fitted to a non-linear regression equation (log inhibitor vs response-variable slope 4-parameters)

T1 sequence (Q96P20 whole entry): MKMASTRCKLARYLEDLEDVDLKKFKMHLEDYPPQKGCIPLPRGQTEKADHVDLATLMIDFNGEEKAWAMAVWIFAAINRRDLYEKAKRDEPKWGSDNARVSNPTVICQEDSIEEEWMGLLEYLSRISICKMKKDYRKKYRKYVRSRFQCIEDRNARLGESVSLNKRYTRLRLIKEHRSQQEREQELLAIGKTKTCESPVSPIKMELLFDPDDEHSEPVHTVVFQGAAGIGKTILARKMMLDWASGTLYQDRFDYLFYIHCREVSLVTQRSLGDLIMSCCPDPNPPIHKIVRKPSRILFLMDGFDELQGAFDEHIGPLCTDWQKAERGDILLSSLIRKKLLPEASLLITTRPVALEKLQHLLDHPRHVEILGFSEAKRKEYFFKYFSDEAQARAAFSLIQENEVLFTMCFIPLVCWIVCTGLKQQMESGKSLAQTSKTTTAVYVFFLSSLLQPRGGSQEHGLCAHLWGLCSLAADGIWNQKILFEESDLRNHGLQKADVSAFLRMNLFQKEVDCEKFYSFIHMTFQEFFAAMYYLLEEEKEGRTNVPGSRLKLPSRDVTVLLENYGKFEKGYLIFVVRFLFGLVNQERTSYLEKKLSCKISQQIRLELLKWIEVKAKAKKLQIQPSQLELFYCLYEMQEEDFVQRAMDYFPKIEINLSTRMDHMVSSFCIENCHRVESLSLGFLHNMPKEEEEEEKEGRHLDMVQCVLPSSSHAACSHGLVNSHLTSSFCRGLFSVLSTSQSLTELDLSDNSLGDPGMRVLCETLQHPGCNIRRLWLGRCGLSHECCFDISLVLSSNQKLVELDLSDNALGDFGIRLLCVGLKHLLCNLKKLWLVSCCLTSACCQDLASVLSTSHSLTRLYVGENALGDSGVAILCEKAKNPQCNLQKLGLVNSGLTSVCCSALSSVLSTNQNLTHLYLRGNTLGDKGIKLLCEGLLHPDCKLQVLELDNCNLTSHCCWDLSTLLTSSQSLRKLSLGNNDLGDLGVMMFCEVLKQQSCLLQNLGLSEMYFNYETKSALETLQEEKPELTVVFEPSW

IC50 [µM]	Structure (SMILES)
≤ 5	CCOC(=O)c1nnc(Nc2c3c(cc4c2CCC4)CCC3)[nH]1 [Example 1, ethyl 5-((1,2,3,5,6,7-hexahydro-s-indacen-4-yl)amino)-4H-1,2,4-triazole-3-carboxylate]

Target: T1, NLRP3
Test: THP-1 cells pyroptosis assay (LPS priming, nigericin, resazurin read-out)
Type: cell-based
Design: Seed THP-1 cells (25,000 cells/well) containing 1.0 μg/ml LPS in 40 μl of RPMI medium; host or cells: THP-1 cells, LPS-primed, nigericin-stimulated
Settings: 1.0 μg/ml LPS, 3 hrs compound, nigericin 5 μM 1 hr
Description: THP-1 cells (ATCC #TIB-202) were grown in RPMI containing L-glutamine (Gibco #11835) supplemented with 1 mM sodium pyruvate (Sigma #S8636) and penicillin (100 units/ml)/streptomycin (0.1 mg/ml) (Sigma #P4333) in 10% Fetal Bovine Serum (FBS) (Sigma #F0804). The cells were routinely passaged and grown to confluency (˜10^6 cells/ml). On the day of the experiment, THP-1 cells were harvested and resuspended into RPMI medium (without FBS). The cells were then counted and viability (>90%) checked by Trypan blue (Sigma #T8154). Appropriate dilutions were made to give a concentration of 625,000 cells/ml. To this diluted cell solution was added LPS (Sigma #L4524) to give a […] Final Assay Concentration (FAC). 40 μl of the final preparation was aliquoted into each well of a 96-well plate. The plate thus prepared was used for compound screening. The following method step-by-step assay was followed for compound screening. • 1. Seed THP-1 cells (25,000 cells/well) containing 1.0 μg/ml LPS in 40 μl of RPMI medium (without FBS) in 96-well, black walled, clear bottom cell culture plates coated with poly-D-lysine (VWR #734-0317) • 2. Add 5 μl compound (8 points half-log dilution, with 10 μM top dose) or vehicle (DMSO 0.1% FAC) to the appropriate wells • 3. Incubate for 3 hrs at 37° C., 5% CO2 • 4. Add 5 μl nigericin (Sigma #N7143) (FAC 5 μM) to all wells • 5. Incubate for 1 hr at 37° C., 5% CO2 • 6. At the end of the incubation period, spin plates at 300×g for 3 mins and remove supernatant • 7. Then add 50 μl of resazurin (Sigma #R7017) (FAC 100 μM resazurin in RPMI medium without FBS) and incubate plates for a further 1-2 hrs at 37° C. and 5% CO2 • 8. Plates were read in an Envision reader at Ex 560 nm and Em 590 nm • 9. IC50 data is fitted to a non-linear regression equation (log inhibitor vs response-variable slope 4-parameters) The results of the pyroptosis assay are summarised in Table 1 below as THP IC50.

Structure (SMILES)	IC50 [µM]
CCOC(=O)c1nnc(Nc2c3c(cc4c2CCC4)CCC3)[nH]1 [Example 1, ethyl 5-((1,2,3,5,6,7-hexahydro-s-indacen-4-yl)amino)-4H-1,2,4-triazole-3-carboxylate]	≤ 2
O=C(OCc1cccnc1)c1nnc(Nc2c3c(cc4c2CCC4)CCC3)[nH]1 [Example 2, pyridin-3-ylmethyl 5-((1,2,3,5,6,7-hexahydro-s-indacen-4-yl)amino)-4H-1,2,4-triazole-3-carboxylate]	≤ 10
O=C(OCc1ccccc1)c1nnc(Nc2c3c(cc4c2CCC4)CCC3)[nH]1 [Example 4]	≤ 5
CC(C)OC(=O)c1nnc(Nc2c3c(cc4c2CCC4)CCC3)[nH]1 [Example 6]	≤ 10
COC(=O)c1nnc(Nc2c3c(cc4c2CCC4)CCC3)[nH]1 [Example 7]	≤ 2

Other lines, results leading:

IC50 [µM]	Structure (SMILES)
≤ 10	COC(=O)c1nnc(Nc2c(-c3ccnc(OC4CCN(C)CC4)c3)ccc3c2CCC3)[nH]1 [Example 3]
≤ 5	COC(=O)c1nnc(Nc2c3c(cc(C)c2-c2ccnc(OC)c2)CCC3)[nH]1 [Example 5]
≤ 5	CCOC(=O)c1nnc(Nc2c(-c3ccnc(OC)c3)ccc3c2CCC3)[nH]1 [Example 8]
